Consider 14 compounds from patent US20260234124A1, “Substituted Pyrazolyl-Pyridinyl Compounds as Ligand Directed Degraders of IRAK3” (Celgene Corporation, priority 2022, published 2026).

This assay deals with T1, IRAK3 (Homo sapiens, UniProt Q9Y616).
T1 sequence (Q9Y616 1-596): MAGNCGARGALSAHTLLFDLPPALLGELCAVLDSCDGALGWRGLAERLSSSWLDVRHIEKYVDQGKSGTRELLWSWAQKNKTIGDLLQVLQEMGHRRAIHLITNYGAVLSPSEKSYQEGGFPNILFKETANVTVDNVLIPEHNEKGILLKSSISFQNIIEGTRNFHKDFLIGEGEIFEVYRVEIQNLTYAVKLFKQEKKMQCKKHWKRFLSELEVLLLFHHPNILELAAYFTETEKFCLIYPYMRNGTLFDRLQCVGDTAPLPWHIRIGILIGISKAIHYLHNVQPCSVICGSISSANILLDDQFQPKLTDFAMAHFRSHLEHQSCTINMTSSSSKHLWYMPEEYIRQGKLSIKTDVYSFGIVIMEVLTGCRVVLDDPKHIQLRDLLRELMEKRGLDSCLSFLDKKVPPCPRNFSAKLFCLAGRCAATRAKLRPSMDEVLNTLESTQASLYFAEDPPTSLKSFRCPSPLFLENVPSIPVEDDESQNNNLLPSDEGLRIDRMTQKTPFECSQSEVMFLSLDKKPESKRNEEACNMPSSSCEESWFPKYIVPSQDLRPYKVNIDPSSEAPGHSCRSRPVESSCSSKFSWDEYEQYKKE
In words: IRAK3 biochemical binding assay (LanthaScreen Eu Kinase Binding, TR-FRET). The conditions noted are these: 10 nM tracer, 10 nM IRAK3, 1 hour at room temperature. The procedure: Example B3. IRAK3 Biochemical Binding Assay
The LanthaScreen® Eu Kinase Binding assay was performed as described by the vendor (ThermoFisher Scientific Waltham, MA). Briefly, 100× solutions of compound were prepared in DMSO via serial dilution of the 10 mM stock solution in a 384-well reagent plate using 3-fold intervals to achieve final concentrations. 1 μL of the compound dilution series were added to the corresponding wells of a 384-well reagent plate containing 32.3 μL of 1× buffer (50 mM HEPES pH 7.4, […], 1 mM EGTA, 0.01% Brij-35). 5 μL of the buffer diluted compounds were transferred to the corresponding wells of a 384-well assay plate. 5 μL of 3× tracer was transferred to each well of the assay plate for a final tracer concentration of 10 nM. Finally, 5 μL of the 3× Eu-Anti-GST and IRAK3 mix was transferred to each well for a final concentration of 2 nM and 10 nM, respectively. Reactions were allowed to incubate for 1 hour at room temperature. TR-FRET signal of the interaction ([…]/λem 665/λem 615) was read at room temperature with a delay time of 100 μs and an integration time of 200 μs using an Envision plate reader. Background corrected emission signal ratios at each compound concentration were used to calculate percentage of inhibition (% o Inhibition). Plots of % Inhibition versus inhibitor concentrations were fit according to a dose-response equation (Eq. 1) to generate IC50 and Hill slope values using Dotmatics software (Dotmatics, Bishops Storford, Hertfordshire, England).
Using these assays, IC50, Dmax, EC50, and DC50 values of the following compounds were determined. Dmax is defined as the maximum percent degradation achieved and DC50 is the concentration at which 50% degradation is achieved.
(Time-resolved FRET reads energy transfer from a long-lived donor to a nearby acceptor.)

In turn, `C[C@@H](Oc1cc(-c2cnn(C3CCN(CCOCCOCCOCCNC(=O)COc4cccc5c4C(=O)N(C4CCC(=O)NC4=O)C5=O)CC3)c2)cnc1N)c1c(Cl)ccc(F)c1Cl` (stereo partly drawn) [Compound 11, N-(2-(2-(2-(2-(4-(4-(6-amino-5-((R)-1-(2,6-dichloro-3-fluorophenyl)ethoxy)pyridin-3-yl)-1H-pyrazol-1-yl)piperidin-1-yl)ethoxy)ethoxy)ethoxy)ethyl)-2-((2-(2,6-dioxopiperidin-3-yl)-1,3-dioxoisoindolin-4-yl)oxy)acetamide] registered an IC50 of 95 nM. Compound `C[C@@H](Oc1cc(-c2cnn(C3CCN(CCOCCOCCOCCOCCNC(=O)COc4cccc5c4C(=O)N(C4CCC(=O)NC4=O)C5=O)CC3)c2)cnc1N)c1c(Cl)ccc(F)c1Cl` (stereo partly drawn) [Compound 12, N-(14-(4-(4-(6-amino-5-((R)-1-(2,6-dichloro-3-fluorophenyl)ethoxy)pyridin-3-yl)-1H-pyrazol-1-yl)piperidin-1-yl)-3,6,9,12-tetraoxatetradecyl)-2-((2-(2,6-dioxopiperidin-3-yl)-1,3-dioxoisoindolin-4-yl)oxy)acetamide] yielded an IC50 of 56 nM. Take `C[C@@H](Oc1cc(-c2cnn(C3CCN(C4CCC5(CC4)CCN(C(=O)c4ccc6c(c4)C(=O)N(C4CCC(=O)NC4=O)C6)CC5)CC3)c2)cnc1N)c1c(Cl)ccc(F)c1Cl` (stereo partly drawn) [Compound 19, 3-(6-(9-(4-(4-(6-amino-5-((R)-1-(2,6-dichloro-3-fluorophenyl)ethoxy)pyridin-3-yl)-1H-pyrazol-1-yl)piperidin-1-yl)-3-azaspiro[5.5]undecane-3-carbonyl)-1-oxoisoindolin-2-yl)piperidine-2,6-dione]: the half-inhibitory concentration (IC50) stood at 4 nM. Consider `Cc1ncsc1-c1ccc(CNC(=O)[C@@H]2C[C@@H](O)CN2C(=O)[C@@H](NC(=O)CCCN2CCC(n3cc(-c4cnc(N)c(O[C@H](C)c5c(Cl)ccc(F)c5Cl)c4)cn3)CC2)C(C)(C)C)cc1` [Compound 1, (2S,4R)-1-((S)-2-(4-(4-(4-(6-amino-5-((R)-1-(2,6-dichloro-3-fluorophenyl)ethoxy)pyridin-3-yl)-1H-pyrazol-1-yl)piperidin-1-yl)butanamido)-3,3-dimethylbutanoyl)-4-hydroxy-N-(4-(4-methylthiazol-5-yl)benzyl)pyrrolidine-2-carboxamide], for which the IC50 was 111 nM. On to `C[C@@H](Oc1cc(-c2cnn(C3CCN(C4CCC5(CC4)CCN(C(=O)c4ccc6c(c4)CN(C4CCC(=O)NC4=O)C6=O)CC5)CC3)c2)cnc1N)c1c(Cl)ccc(F)c1Cl` (stereo partly drawn) [Compound 20, 3-(5-(9-(4-(4-(6-amino-5-((R)-1-(2,6-dichloro-3-fluorophenyl)ethoxy)pyridin-3-yl)-1H-pyrazol-1-yl)piperidin-1-yl)-3-azaspiro[5.5]undecane-3-carbonyl)-1-oxoisoindolin-2-yl)piperidine-2,6-dione], for which the IC50 was 10 nM. Under `Cc1ncsc1-c1ccc(CNC(=O)[C@@H]2C[C@@H](O)CN2C(=O)[C@@H](NC(=O)COCCOCCOCCOCCOCCOCCN2CCC(n3cc(-c4cnc(N)c(O[C@H](C)c5c(Cl)ccc(F)c5Cl)c4)cn3)CC2)C(C)(C)C)cc1` [Compound 6, (2S,4R)-1-((S)-23-(4-(4-(6-amino-5-((R)-1-(2,6-dichloro-3-fluorophenyl)ethoxy)pyridin-3-yl)-1H-pyrazol-1-yl)piperidin-1-yl)-2-(tert-butyl)-4-oxo-6,9,12,15,18,21-hexaoxa-3-azatricosanoyl)-4-hydroxy-N-(4-(4-methylthiazol-5-yl)benzyl)pyrrolidine-2-carboxamide] stands 108 nM; under `Cc1ncsc1-c1ccc(CNC(=O)[C@@H]2C[C@@H](O)CN2C(=O)[C@@H](NC(=O)COCCOCCOCCN2CCC(n3cc(-c4cnc(N)c(O[C@H](C)c5c(Cl)ccc(F)c5Cl)c4)cn3)CC2)C(C)(C)C)cc1` [Compound 3, (2S,4R)-1-((S)-14-(4-(4-(6-amino-5-((R)-1-(2,6-dichloro-3-fluorophenyl)ethoxy)pyridin-3-yl)-1H-pyrazol-1-yl)piperidin-1-yl)-2-(tert-butyl)-4-oxo-6,9,12-trioxa-3-azatetradecanoyl)-4-hydroxy-N-(4-(4-methylthiazol-5-yl)benzyl)pyrrolidine-2-carboxamide], 186 nM. `C[C@@H](Oc1cc(-c2cnn(C3CCN(CCOCCOCCOCCNC(=O)COc4ccc5c(c4)C(=O)N(C4CCC(=O)NC4=O)C5=O)CC3)c2)cnc1N)c1c(Cl)ccc(F)c1Cl` (stereo partly drawn) [Compound 16, N-(2-(2-(2-(2-(4-(4-(6-amino-5-((R)-1-(2,6-dichloro-3-fluorophenyl)ethoxy)pyridin-3-yl)-1H-pyrazol-1-yl)piperidin-1-yl)ethoxy)ethoxy)ethoxy)ethyl)-2-((2-(2,6-dioxopiperidin-3-yl)-1,3-dioxoisoindolin-5-yl)oxy)acetamide] returned an IC50 of 47 nM. In the case of `C[C@@H](Oc1cc(-c2cnn(C3CCN(CCNC(=O)COc4ccc5c(c4)C(=O)N(C4CCC(=O)NC4=O)C5=O)CC3)c2)cnc1N)c1c(Cl)ccc(F)c1Cl` (stereo partly drawn) [Compound 13, N-(2-(4-(4-(6-amino-5-((R)-1-(2,6-dichloro-3-fluorophenyl)ethoxy)pyridin-3-yl)-1H-pyrazol-1-yl)piperidin-1-yl)ethyl)-2-((2-(2,6-dioxopiperidin-3-yl)-1,3-dioxoisoindolin-5-yl)oxy)acetamide], the half-maximal inhibitory concentration (IC50) worked out at 16 nM. Consider `C[C@@H](Oc1cc(-c2cnn(C3CCN(CCOCCNC(=O)COc4cccc5c4C(=O)N(C4CCC(=O)NC4=O)C5=O)CC3)c2)cnc1N)c1c(Cl)ccc(F)c1Cl` (stereo partly drawn) [Compound 9, N-(2-(2-(4-(4-(6-amino-5-((R)-1-(2,6-dichloro-3-fluorophenyl)ethoxy)pyridin-3-yl)-1H-pyrazol-1-yl)piperidin-1-yl)ethoxy)ethyl)-2-((2-(2,6-dioxopiperidin-3-yl)-1,3-dioxoisoindolin-4-yl)oxy)acetamide], for which the IC50 was 45 nM. For `Cc1ncsc1-c1ccc(CNC(=O)[C@@H]2C[C@@H](O)CN2C(=O)[C@@H](NC(=O)COCCOCCOCCOCCOCCOCCOCCN2CCC(n3cc(-c4cnc(N)c(O[C@H](C)c5c(Cl)ccc(F)c5Cl)c4)cn3)CC2)C(C)(C)C)cc1` [Compound 7, (2S,4R)-1-((S)-26-(4-(4-(6-amino-5-((R)-1-(2,6-dichloro-3-fluorophenyl)ethoxy)pyridin-3-yl)-1H-pyrazol-1-yl)piperidin-1-yl)-2-(tert-butyl)-4-oxo-6,9,12,15,18,21,24-heptaoxa-3-azahexacosanoyl)-4-hydroxy-N-(4-(4-methylthiazol-5-yl)benzyl)pyrrolidine-2-carboxamide] the value was 331 nM; for `C[C@@H](Oc1cc(-c2cnn(C3CCN(CCOCCNC(=O)COc4ccc5c(c4)C(=O)N(C4CCC(=O)NC4=O)C5=O)CC3)c2)cnc1N)c1c(Cl)ccc(F)c1Cl` (stereo partly drawn) [Compound 14, N-(2-(2-(4-(4-(6-amino-5-((R)-1-(2,6-dichloro-3-fluorophenyl)ethoxy)pyridin-3-yl)-1H-pyrazol-1-yl)piperidin-1-yl)ethoxy)ethyl)-2-((2-(2,6-dioxopiperidin-3-yl)-1,3-dioxoisoindolin-5-yl)oxy)acetamide], 70 nM.

Regarding `C[C@@H](Oc1cc(-c2cnn(C3CCN(CCNC(=O)COc4cccc5c4C(=O)N(C4CCC(=O)NC4=O)C5=O)CC3)c2)cnc1N)c1c(Cl)ccc(F)c1Cl` (stereo partly drawn) [Compound 8, N-(2-(4-(4-(6-amino-5-((R)-1-(2,6-dichloro-3-fluorophenyl)ethoxy)pyridin-3-yl)-1H-pyrazol-1-yl)piperidin-1-yl)ethyl)-2-((2-(2,6-dioxopiperidin-3-yl)-1,3-dioxoisoindolin-4-yl)oxy)acetamide], the IC50 came out at 25 nM. For `C[C@@H](Oc1cc(-c2cnn(C3CCN(C4CCC5(CC4)CCN(C(=O)c4cccc(NC6CCC(=O)NC6=O)c4)CC5)CC3)c2)cnc1N)c1c(Cl)ccc(F)c1Cl` (stereo partly drawn) [Compound 22, 3-((3-(9-(4-(4-(6-Amino-5-((R)-1-(2,6-dichloro-3-fluorophenyl)ethoxy)pyridin-3-yl)-1H-pyrazol-1-yl)piperidin-1-yl)-3-azaspiro[5.5]undecane-3-carbonyl)phenyl)amino)piperidine-2,6-dione] the value was 5 nM.

By IC50 is commonly meant the concentration that inhibits the measured activity by half. A high value points to lower potency.
